Patent publication US11180462B2, “Microbiocidal oxadiazole derivatives” (SYNGENTA PARTICIPATIONS AG, priority 2015, dated 2021)

Tests used:
[1] = system: Puccinia recondita f. Sp. Tritici; experiment: Fungicidal activity against Puccinia recondita f. sp. tritici / wheat / leaf disc preventative (brown rust); type: in vivo; conditions: foliar, 200 ppm in the applied formulation, wheat leaf segments, preventative, compared to untreated control leaf disks, read-out: disease control
Summary of the method: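 Compound application precedes infection: segments of wheat cv. Kanzler, sprayed at 200 ppm, are inoculated with a spore suspension after 1 day. Incubation is at 19° C. with 75% relative humidity and 12 h light/12 h darkness, and control versus untreated leaves is rated 7 to 9 days post-application.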

[2] = system: Glomerella lagenarium (Colletotrichum lagenarium); experiment: Fungicidal activity against Glomerella lagenarium (Colletotrichum lagenarium) liquid culture / cucumber / preventative (anthracnose); type: cell-based; conditions: Colletotrichum orbiculare; 20 ppm in the applied formulation; liquid culture (PDB), growth inhibition measured photometrically after 3 to 4 days; compared to untreated control; read-out: disease control
Summary of the method: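 Photometric read-out of fungal growth after 2–7 days, expressed as percent antifungal activity versus untreated check. Cryo-stored conidia in PDB; compound at 20 ppm; dark, 24 °C, 96% RH.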

[3] = system: Phakopsora Pachyrhizi; experiment: Fungicidal activity against Phakopsora pachyrhizi / soybean / leaf disc preventative (Asian soybean rust); type: in vivo; conditions: foliar, 200 ppm in the applied formulation, soybean leaf disks, compared to untreated control leaf disks, read-out: disease control
Method: Leaf disks or leaf segments of various plant species are cut from plants grown in a greenhouse. The cut leaf disks or segments are placed in multiwell plates (24-well format) onto water agar. The leaf disks are sprayed with a test solution before (preventative) or after (curative) inoculation. Compounds to be tested are prepared as DMSO solutions (max. 10 mg/ml) which are diluted to the appropriate concentration with 0.025% Tween20 just before spraying. The inoculated leaf disks or segments are incubated under defined conditions (temperature, relative humidity, light, etc.) according to the respective test system. A single evaluation of disease level is carried out 3 to 14 days after inoculation, depending on the pathosystem. Percent disease control relative to the untreated check leaf disks or segments is then calculated.
Fungicidal Activity Against Phakopsora Pachyrhizi Soybean/Leaf Disc Preventative (Asian Soybean Rust)
Soybean leaf disks are placed on water agar in multiwell plates (24-well format) and sprayed with the formulated test compound diluted in water. One day after application leaf discs are inoculated by spraying a spore suspension on the lower leaf surface. After an incubation period in a climate cabinet of 24-36 hours in darkness at 20° C. and 75% rh leaf disc are kept at 20° C. with 12 h light/day and 75% rh. The activity of a compound is assessed as percent disease control compared to untreated when an appropriate level of disease damage appears in untreated check leaf disks (12 to 14 days after application).
The following compounds at 200 ppm in the applied formulation give at least 80% disease control in this test when compared to untreated control leaf disks under the same conditions, which show extensive disease development.

| Structure (SMILES) | pest or weed control at 200 ppm [1] [%] | inhibition of growth at 20 ppm [2] [%] | pest or weed control at 200 ppm [3] [%] |
| --- | --- | --- | --- |
| CON(Cc1ccc(-c2noc(C(F)(F)F)n2)cc1)C(=O)C1(C)CCCCC1 [Compound 1.33, N-methoxy-1-methyl-N-[[4-[5-(trifluoromethyl)-1,2,4-oxadiazol-3-yl]phenyl]methyl]-cyclohexane-carboxamide] | ≥ 80 | ≥ 80 | ≥ 80 |
| C#CCOc1ccc(C(=O)N(Cc2ccc(-c3noc(C(F)(F)F)n3)cc2)OC)cc1F [Compound 1.51, 3-fluoro-N-methoxy-4-prop-2-ynoxy-N-[[4-[5-(trifluoromethy)-1,2,4-oxadiazol-3-yl]phenyl]methyl]-benzamide] | ≥ 80 | ≥ 80 | ≥ 80 |
| C#CCC(NS(=O)(=O)CC)C(=O)N(Cc1ccc(-c2noc(C(F)(F)F)n2)cc1)OC (stereo not drawn) [Compound 1.60, 2-(ethylsulfonylamino)-N-methoxy-N-[[4-[5-(trifluoromethyl)-1,2,4-oxadiazol-3-yl]phenyl]methyl]-pent-4-ynamide] | ≥ 80 | – | ≥ 80 |
| O=C(C1CCCCC1)N(Cc1ccc(-c2noc(C(F)(F)F)n2)cc1)C1CC1 [Compound 1.90, N-cyclopropyl-N-[[4-[5-(trifluoromethyl)-1,2,4-oxadiazol-3-yl]phenyl]methyl]-cyclohexane-carboxamide] | ≥ 80 | ≥ 80 | ≥ 80 |
| CCCCCC(=O)N(Cc1ccc(-c2noc(C(F)(F)F)n2)cc1)C1CC1 [Compound 1.93, N-cyclopropyl-N-[[4-[5-(trifluoromethyl)-1,2,4-oxadiazol-3-yl]phenyl]methyl]-hexanamide] | ≥ 80 | ≥ 80 | ≥ 80 |
| CCC(C)(CC)C(=O)N(Cc1ccc(-c2noc(C(F)(F)F)n2)cc1)C1CC1 [Compound 1.135, N-cyclopropyl-2-ethyl-2-methyl-N-[[4-[5-(trifluoromethyl)-1,2,4-oxadiazol-3-yl]phenyl]methyl]-butanamide] | ≥ 80 | ≥ 80 | ≥ 80 |
| C#CCOC(=O)NC(C(=O)N(Cc1ccc(-c2noc(C(F)(F)F)n2)cc1)C1CC1)C(C)C (stereo not drawn) [Compound 1.144, prop-2-ynyl N-[1-[cyclopropyl-[[4-[5-(trifluoromethyl)-1,2,4-oxadiazol-3-yl]phenyl]methyl]-carbamoyl]-2-methyl-propyl]carbamate] | ≥ 80 | ≥ 80 | ≥ 80 |
| C#CCN(Cc1ccc(-c2noc(C(F)(F)F)n2)cc1)C(=O)C1CCCCC1 [Compound 1.158, N-prop-2-ynyl-N-[[4-[5-(trifluoromethyl)-1,2,4-oxadiazol-3-yl]phenyl]methyl]-cyclohexane-carboxamide] | ≥ 80 | ≥ 80 | ≥ 80 |
| C#CCN(Cc1ccc(-c2noc(C(F)(F)F)n2)cc1)C(=O)C1CC1(Cl)Cl (stereo not drawn) [Compound 1.190, 2,2-dichloro-N-prop-2-ynyl-N-[[4-[5-(trifluoromethyl)-1,2,4-oxadiazol-3-yl]phenyl]methyl]-cyclopropane-carboxamide] | ≥ 80 | ≥ 80 | ≥ 80 |
| C#CCN(Cc1ccc(-c2noc(C(F)(F)F)n2)cc1)C(=O)Cc1ccc(C#N)cc1 [Compound 1.193, 2-(4-cyanophenyl)-N-prop-2-ynyl-N-[[4-[5-(trifluoromethyl)-1,2,4-oxadiazol-3-yl]phenyl]methyl]-acetamide] | ≥ 80 | ≥ 80 | ≥ 80 |
| CC(=O)CC(C)C(=O)N(Cc1ccc(-c2noc(C(F)(F)F)n2)cc1)CC1CC1 (stereo not drawn) [Compound 1.209, N-(cyclopropylmethyl)-2-methyl-4-oxo-N-[[4-[5-(trifluoromethyl)-1,2,4-oxadiazol-3-yl]phenyl)methyl]-pentanamide] | ≥ 80 | ≥ 80 | ≥ 80 |
| O=C(C1CCCC1)N(Cc1ccc(-c2noc(C(F)(F)F)n2)cc1)CC1CC1 [Compound 1.212, N-(cyclopropylmethyl)-N-[[4-[5-(trifluoromethyl)-1,2,4-oxadiazol-3-yl]phenyl]methyl]-cyclopentane-carboxamide] | ≥ 80 | ≥ 80 | ≥ 80 |
| CC(C)CC(=O)N(Cc1ccc(-c2noc(C(F)(F)F)n2)cc1)CC1CC1 [Compound 1.218, N-(cyclopropylmethyl)-3-methyl-N-[[4-[5-(trifluoromethyl)-1,2,4-oxadiazol-3-yl]phenyl]methyl]-butanamide] | ≥ 80 | ≥ 80 | ≥ 80 |
| O=C(C1CCC1)N(Cc1ccc(-c2noc(C(F)(F)F)n2)cc1)CC1CC1 [Compound 1.221, N-(cyclopropylmethyl)-N-[[4-[5-(trifluoromethyl)-1,2,4-oxadiazol-3-yl]phenyl]methyl]-cyctobutane-carboxamide] | ≥ 80 | ≥ 80 | ≥ 80 |
| CC=CCC(=O)N(Cc1ccc(-c2noc(C(F)(F)F)n2)cc1)CC1CC1 [Compound 1.222, N-(cyclopropylmethyl)-N-[[4-[5-(trifluoromethyl)-1,2,4-oxadiazol-3-yl]phenyl]methyl]-pent-3-enamide] | ≥ 80 | ≥ 80 | ≥ 80 |
| COCCCC(=O)N(Cc1ccc(-c2noc(C(F)(F)F)n2)cc1)CC1CC1 [Compound 1.238, N-(cyclopropylmethyl)-4-methoxy-N-[[4-[5-(trifluoromethyl)-1,2,4-oxadiazol-3-yl]phenyl]methyl]-butanamide] | ≥ 80 | ≥ 80 | ≥ 80 |
| CON(C(=O)C1(C#N)CC1)C(C)c1ccc(-c2noc(C(F)(F)F)n2)cc1 (stereo not drawn) [Compound 1.274, 1-cyano-N-methoxy-N-[1-[4-[5-(trifluoromethyl)-1,2,4-oxadiazol-3-yl]phenyl]ethyl]-cyclopropane-carboxamide] | ≥ 80 | ≥ 80 | ≥ 80 |
| CCCON(Cc1ccc(-c2noc(C(F)(F)F)n2)cc1)C(=O)C1CCCO1 (stereo not drawn) [Compound 1.312, N-propoxy-N-[[4-[5-(trifluoromethyl)-1,2,4-oxadiazol-3-yl]phenyl]methyl]-tetrahydrofuran-2-carboxamide] | ≥ 80 | ≥ 80 | ≥ 80 |
| COCCCC(=O)N(Cc1ccc(-c2noc(C(F)(F)F)n2)cc1)CC(F)(F)F [Compound 1.700, 4-methoxy-N-(2,2,2-trifluoroethyl)-N-[[4-[5-(trifluoromethyl)-1,2,4-oxadiazol-3-yl]phenyl]methyl]-butanamide] | – | ≥ 80 | ≥ 80 |
| O=C(CC1CC1)N(Cc1ccc(-c2noc(C(F)(F)F)n2)cc1)CC(F)(F)F [Compound 1.706, 2-cyclopropyl-N-(2,2,2-trifluoroethyl)-N-[[4-[5-(trifluoromethyl)-1,2,4-oxadiazol-3-yl]phenyl]methyl]-acetamide] | – | ≥ 80 | ≥ 80 |
| N#CCC(=O)N(CCO)Cc1ccc(-c2noc(C(F)(F)F)n2)cc1 [Compound 1.728, 2-cyano-N-(2-hydroxyethyl)-N-[[4-[5-(trifluoromethyl)-1,2,4-oxadiazol-3-yl]phenyl]methyl]-acetamide] | ≥ 80 | – | ≥ 80 |
| N#CC1(C(=O)OCCN(Cc2ccc(-c3noc(C(F)(F)F)n3)cc2)C(=O)C2(C#N)CC2)CC1 [Compound 1.730, 2-[(1-cyanocyclopropane-carbonyl)-[[4-[5-(trifluoromethyl)-1,2,4-oxadiazol-3-yl]phenyl]methyl]-amino]ethyl 1-cyanocyclopropane-carboxylate] | – | ≥ 80 | ≥ 80 |
| O=C(ON(Cc1ccc(-c2noc(C(F)(F)F)n2)cc1)C(=O)c1ccccc1Cl)c1ccccc1Cl [Compound 1.755, [(2-chlorobenzoyl)-[[4-[5-(trifluoromethyl)-1,2,4-oxadiazol-3-yl]phenyl]methyl]-amino] 2-chlorobenzoate] | – | ≥ 80 | ≥ 80 |
